The text below walks through data of patent US9034895B2, “Composition and methods for treating glioblastoma” (University of Washington Through its Center for …, priority 2010, dated 2015).

One assay has as its system T98g cells. Nature of the assay: Cell viability assay (WST-1), toxic potency and efficacy at T98g cells. Type of assay: cell-based. Conditions: Homo sapiens, 72 h. As for the experimental part:
Cells were plated media supplemented with 10% serum in 96-well plates (10^4 cells per wellI; 0.1 ml per well). Once they reached ˜70% confluence, they were rinsed with PBS and kept for an additional 24 hrs in media supplemented with 1% serum, at which time drugs or vehicle (DMSO, 0.1%, prepared in 10 μl serum-free media) were directly added to each well. After 3 days, cell viability was assessed using the Cell Proliferation Reagent WST-1 (Roche, Indianapolis, Ind.). Briefly, WST-1 reagent (10 μl) was added to each well for 3 hrs at 37° C. with 5% CO2 and WST-1 products were read at 450 nm using Packard SpectraCount™.
Because the strongest toxic effect of WIN55212-2 was measured in T98g cells, these cells are used as readout to study the structure activity relationship (SAR) of AAI compounds at inducing cell death through AAI receptors.

For another assay, the target named is T1, CB2 (Mus musculus, UniProt P47936).
T1 construct: plasmids containing full coding region of mouse CB1 and CB2; expressed in transfected cells
The experiment in a line: Radioligand competition binding, [3H]-CP55940, CB2-expressing HEK293 membranes. The procedure:
Stable CB1 and CB2 expressing HEK293 cell lines were generated using plasmids containing full coding region of mouse CB1 and CB2.
Fragments were amplified from total RNA of cell lines by reverse transcriptase-polymerase chain reaction (RT-PCR). Sequence was confirmed and the fragment was cloned into the EcoRI site of the pIRES2-eGFP-express vector. Cells were grown to approximately 80% confluence in 10 cm cell culture dishes, transfected with the cDNA pIRES-eGFP-vector containing the murine CB1 or CB2 receptor using LipofectAMINE™ 2000 reagent in the serum-free media Opti-MEM 1 according to the manufacturer's description. Cells were subject to FACS sorting 48 h after transfection and single cell sorted based on dsRed expression into 96-well plates. Of the dsRed expressing positive clones, 3 were validated for CB1 and CB2 protein expression by radioligand binding analysis (methods discussed below).
Cells were grown to 90% confluence, rinsed twice with 1×PBS and stored at −80° C. until further use. To prepare crude cellular membrane fractions, dishes were removed from −80° C. and thawed at room temperature for 5 min. Once thawed, cells were lysed with ice-cold homogenization buffer (50 mM Tris, 1 mM EDTA, 3 mM MgCl2) and gently scraped from the dish. Total cell lysates from 3-5 dishes were collected on ice in 3 ml of ice-cold homogenization buffer. Cells were homogenized at 6,500 rpm (PRO Scientific, Oxford, Conn.) twice for 10 sec and centrifuged at 11,500 rpm for 20 min at 4° C. Supernatants were discarded and cell pellets were resuspended in homogenization buffer and triturated 10 times in ice-cold homogenization buffer. Crude cellular membrane homogenates were stored at −80° C. until further use. On the day of experiments, frozen homogenates were thawed at room temperature, gently triturated 10 times and subsequently dounce homogenized in a 7 ml glass tissue grinder (Wheaton Science Products, Millville, N.J.) by 5 strokes while on ice. […]

Another assay has as its system U251 flank tumors. Nature of the assay: U251 flank tumors in nude mice, tumor growth. It is filed as in vivo. The procedure: Nude mice that had been implanted with U251 flank tumors were treated with a daily regimen of JWH-451. This experiment was performed as follow: 10^6 U251 cells were implanted in the flanks of nude mice and the tumor was allowed to grow until it reached a size of 250 mm^3, at which point the mice were enrolled in daily treatment. Tumor growth was then measured and expressed as a function of initial tumor size.

T1 sequence (P47936 whole entry): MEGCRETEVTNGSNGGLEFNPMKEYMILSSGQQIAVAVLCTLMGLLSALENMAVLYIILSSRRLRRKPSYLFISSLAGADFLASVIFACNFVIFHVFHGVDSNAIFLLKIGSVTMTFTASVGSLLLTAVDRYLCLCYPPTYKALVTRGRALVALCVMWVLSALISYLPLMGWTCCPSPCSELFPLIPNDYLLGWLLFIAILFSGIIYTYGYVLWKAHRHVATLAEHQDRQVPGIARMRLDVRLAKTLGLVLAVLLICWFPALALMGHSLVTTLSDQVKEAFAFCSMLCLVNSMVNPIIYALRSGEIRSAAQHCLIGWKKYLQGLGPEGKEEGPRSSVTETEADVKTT

With `CCn1c(C)c(C(=O)c2ccc(C)c3ccccc23)c2ccccc21` [JWH-451, 1-Ethyl-2-methyl-3-(4-methyl-1-napthoyl)indole], the Emax with T98g cells (read-out: Toxic potency at T98g cells (percent efficacy)) turned out to be 81%. Besides, in the assay with T98g cells (read-out: Toxic potency at T98g cells potency μM), the EC50 is 1.1 µM. For the same molecule, on CB2 (FIG. 2), the “competition for [3H]-CP55940 binding at CB2” value is “does not”. Besides, at CB2 (relative to WIN55212-2), the “lower affinity at CB2 receptors than WIN55212-2” value is 100 fold. Also, the “tumor growth in vivo” value in the assay on U251 flank tumors (daily i.p. injection 15 mg/Kg, U251 flank tumors, nude mice) is given as “significantly reduced tumor growth”. Besides, the “growth of U251 gliomas implanted in the flanks of nude mice” value with U251 flank tumors (daily i.p. injections 5 mg/Kg (FIG. 5 legend), compared to controls) is given as “inhibits the growth”.
